Assay results as given in patent publication US4388311A, “Method for the induction of menses” (G. D. Searle & Co., priority 1982, dated 1983).
Values joined by “and” are separate entries in the source; they are usually repeats but may differ in a detail not shown here. Identical values can stand only once.

Experiments:
pregnancy in rats [1] = experiment: Termination of pregnancy in rats, compounds administered subcutaneously (Table 2); assay type: in vivo, rat
Procedure: (§1) The following tables list the results for a compound of Formula IV as compared with a control of previously known 2α-cyano-17β-hydroxy-3-oxo-4,4,17α-trimethylandrost-5-end(Cyanoketone) for termination of pregnancy.
^1 Compounds given subcutaneously in corn oil vehicle once daily on
days 10 through 13 of pregnancy. Serum for progesterone determination was
drawn on day 11 of pregnancy, 24 hours after the initial injection of
(§2) compound. The animals were autopsied on day 14 of pregnancy.
^2 Serum progesterone values determined by RIA at Interlab Associates

pregnancy in rats [2] = experiment: Pregnancy termination in rats, compounds administered intragastrically on day 10 of pregnancy (Table 3); assay type: in vivo, rat; settings: autopsy day 14
Procedure: as §1
^1 Compounds were administered intragastrically once daily on days 10
of pregnancy in a vehicle consisting of PEG400, propylene glycol and 100
percent ethanol (50:40:10, v:v:v). Serum for progesterone determination
was drawn on day 11 of pregnancy, 24 hours after the initial injection of
as §2

[3] = 2 mg/kg/day subcutaneously in corn oil once daily days 10-13 of pregnancy, autopsy day 14
[4] = 4 mg/kg/day subcutaneously days 10-13 of pregnancy, serum day 11, 24 hours after initial injection
[5] = 4 mg/kg/day subcutaneously in corn oil once daily days 10-13 of pregnancy, autopsy day 14
[6] = 8 mg/kg/day subcutaneously days 10-13 of pregnancy, serum day 11, 24 hours after initial injection
[7] = 8 mg/kg/day subcutaneously in corn oil once daily days 10-13 of pregnancy, autopsy day 14
[8] = 16 mg/kg/day subcutaneously days 10-13 of pregnancy, serum day 11, 24 hours after initial injection
[9] = 16 mg/kg/day subcutaneously in corn oil once daily days 10-13 of pregnancy, autopsy day 14, 16 mg/kg/day
[10] = 32 mg/kg/day subcutaneously days 10-13 of pregnancy, serum day 11, 24 hours after initial injection
[11] = 32 mg/kg/day subcutaneously in corn oil once daily days 10-13 of pregnancy, autopsy day 14
[12] = 1 mg/kg intragastrically once on day 10 of pregnancy
[13] = 2 mg/kg intragastrically once on day 10 of pregnancy
[14] = 4 mg/kg intragastrically once on day 10 of pregnancy
[15] = 8 mg/kg intragastrically once on day 10 of pregnancy
[16] = 16 mg/kg intragastrically once on day 10 of pregnancy
[17] = 32 mg/kg intragastrically once on day 10 of pregnancy

## CC1(C)C(=O)[C@H](C#N)C[C@@]2(C)C1=CC[C@@H]1[C@@H]2CC[C@@]2(C)[C@H]1CC[C@]2(C)O [Cyanoketone, 2α-cyano-17β-hydroxy-3-oxo-4,4,17α-trimethylandrost-5-end]
Pregnancy in rats [1]; [3]
  Adrenal Wt. mg + SE: 91.6 + 4.6 mg
  Fetal Viability: Normal Fetuses/Implantation Sites: 94/103
  Fetal Viability: Normal Fetuses/Implantation Sites (Percent): 91%
  Number of Rats Pregnant/Number of Rats Treated: 8/8
  Number of Rats Pregnant/Number of Rats Treated (Percent): 100%
Pregnancy in rats [1]; [4]
  Serum Progesterone (Percent Control): 92 Percent Control
  Serum Progesterone ng/ml + S.E.: 40.0 + 3.5 ng/ml
Pregnancy in rats [1]; [5]
  Adrenal Wt. mg + SE: 93.1 + 4.0 mg
  Fetal Viability: Normal Fetuses/Implantation Sites: 27/87
  Fetal Viability: Normal Fetuses/Implantation Sites (Percent): 32%
  Number of Rats Pregnant/Number of Rats Treated: 3/6
  Number of Rats Pregnant/Number of Rats Treated (Percent): 50%
Pregnancy in rats [1]; [6]
  Serum Progesterone (Percent Control): 44 Percent Control
  Serum Progesterone ng/ml + S.E.: 22.1 + 6.0 ng/ml
Pregnancy in rats [1]; [7]
  Adrenal Wt. mg + SE: 78.8 + 3.9 mg
  Fetal Viability: Normal Fetuses/Implantation Sites: 36/119
  Fetal Viability: Normal Fetuses/Implantation Sites (Percent): 30%
  Number of Rats Pregnant/Number of Rats Treated: 5/10
  Number of Rats Pregnant/Number of Rats Treated (Percent): 50%
Pregnancy in rats [1]; [8]
  Serum Progesterone (Percent Control): 48 Percent Control
  Serum Progesterone ng/ml + S.E.: 24.3 + 7.6 ng/ml
Pregnancy in rats [1]; 16 mg/kg/day subcutaneously days 10-13 of pregnancy, serum day 11, determined by RIA at Interlab Associates (footnote 2)
  Serum Progesterone (Percent Control): 70 Percent Control
Pregnancy in rats [1]; 16 mg/kg/day subcutaneously days 10-13 of pregnancy, serum day 11, group whose values were determined by RIA at Interlab Associates (footnote 2)
  Serum Progesterone ng/ml + S.E.: 50.7 + 5.4 ng/ml
Pregnancy in rats [1]; [9]
  Adrenal Wt. mg + SE: 77.0 + 4.5 mg and 105.2 mg
  Fetal Viability: Normal Fetuses/Implantation Sites: 26/103 and 11/94
  Number of Rats Pregnant/Number of Rats Treated: 3/9 and 2/8
  Number of Rats Pregnant/Number of Rats Treated (Percent): 33% and 25%
Pregnancy in rats [1]; [10]
  Serum Progesterone (Percent Control): 70 Percent Control
  Serum Progesterone ng/ml + S.E.: 35.1 + 7.8 ng/ml
Pregnancy in rats [1]; [11]
  Adrenal Wt. mg + SE: 94.8 + 8.9 mg
  Fetal Viability: Normal Fetuses/Implantation Sites: 15/63
  Fetal Viability: Normal Fetuses/Implantation Sites (Percent): 24%
  Number of Rats Pregnant/Number of Rats Treated: 2/6
  Number of Rats Pregnant/Number of Rats Treated (Percent): 33%
Pregnancy in rats [2]; [12]
  Adrenal Wt. mg + SE: 55.8 + 4.1 mg
  Fetal Viability: Normal Fetuses/Implantation Sites: 54/56
  Fetal Viability: Normal Fetuses/Implantation Sites (Percent): 96%
  Number of Rats Pregnant/Number of Rats Treated: 5/5
  Number of Rats Pregnant/Number of Rats Treated (Percent): 100%
Pregnancy in rats [2]; [13]
  Adrenal Wt. mg + SE: 64.1 + 5.2 mg
  Fetal Viability: Normal Fetuses/Implantation Sites: 56/77
  Fetal Viability: Normal Fetuses/Implantation Sites (Percent): 72%
  Number of Rats Pregnant/Number of Rats Treated: 6/6
  Number of Rats Pregnant/Number of Rats Treated (Percent): 100%
Pregnancy in rats [2]; [14]
  Adrenal Wt. mg + SE: 75.9 + 6.1 mg
  Fetal Viability: Normal Fetuses/Implantation Sites: 46/84
  Fetal Viability: Normal Fetuses/Implantation Sites (Percent): 55%
  Number of Rats Pregnant/Number of Rats Treated: 4/7
  Number of Rats Pregnant/Number of Rats Treated (Percent): 57%
Pregnancy in rats [2]; [15]
  Fetal Viability: Normal Fetuses/Implantation Sites: 11/112
  Fetal Viability: Normal Fetuses/Implantation Sites (Percent): 10%
  Number of Rats Pregnant/Number of Rats Treated: 1/9
  Number of Rats Pregnant/Number of Rats Treated (Percent): 11%
Pregnancy in rats [2]; [16]
  Adrenal Wt. mg + SE: 61.3 + 3.0 mg
  Fetal Viability: Normal Fetuses/Implantation Sites: 8/108
  Fetal Viability: Normal Fetuses/Implantation Sites (Percent): 7%
  Number of Rats Pregnant/Number of Rats Treated: 1/9
  Number of Rats Pregnant/Number of Rats Treated (Percent): 11%
Pregnancy in rats [2]; [17]
  Adrenal Wt. mg + SE: 60.3 + 1.6 mg
  Fetal Viability: Normal Fetuses/Implantation Sites: 10/106
  Fetal Viability: Normal Fetuses/Implantation Sites (Percent): 9%
  Number of Rats Pregnant/Number of Rats Treated: 1/10
  Number of Rats Pregnant/Number of Rats Treated (Percent): 10%
